Data as given in the NIST ThermoML archive (doi:10.1021/acs.jced.6b00688).

Test: xn = mol fraction of the nth substance listed
Conditions: 100 kPa, Liquid; for viscosity: Falling or rolling sphere viscometry; for mass density: Vibrating tube method

CCCCCCCO [heptan-1-ol] + CCCCCCCCCCCC
Conditions	mass density [kg/m3]	viscosity [mPa·s]
293.15 K, x2 = 0.0998	810.76	5.346
293.15 K, x2 = 0.2005	800.65	4.224
293.15 K, x2 = 0.302	791.28	3.358
293.15 K, x2 = 0.3991	783.4	2.778
293.15 K, x2 = 0.4989	776.02	2.363
293.15 K, x2 = 0.5994	769.4	2.052
293.15 K, x2 = 0.6975	763.54	1.835
293.15 K, x2 = 0.7959	758.2	1.677
293.15 K, x2 = 0.8984	753.19	1.538
298.15 K, x2 = 0.0998	807.24	4.555
298.15 K, x2 = 0.2005	797.07	3.626
298.15 K, x2 = 0.302	787.66	2.917
298.15 K, x2 = 0.3991	779.77	2.444
298.15 K, x2 = 0.4989	772.37	2.098
298.15 K, x2 = 0.5994	765.74	1.837
298.15 K, x2 = 0.6975	759.88	1.653
298.15 K, x2 = 0.7959	754.54	1.516
298.15 K, x2 = 0.8984	749.53	1.397
303.15 K, x2 = 0.0998	803.68	3.91
303.15 K, x2 = 0.2005	793.46	3.144
303.15 K, x2 = 0.302	784.02	2.559
303.15 K, x2 = 0.3991	776.11	2.168
303.15 K, x2 = 0.4989	768.69	1.878
303.15 K, x2 = 0.5994	762.06	1.655
303.15 K, x2 = 0.6975	756.19	1.498
303.15 K, x2 = 0.7959	750.85	1.38
303.15 K, x2 = 0.8984	745.85	1.276
308.15 K, x2 = 0.0998	800.09	3.381
308.15 K, x2 = 0.2005	789.82	2.745
308.15 K, x2 = 0.302	780.35	2.26
308.15 K, x2 = 0.3991	772.42	1.935
308.15 K, x2 = 0.4989	765	1.69
308.15 K, x2 = 0.5994	758.35	1.5
308.15 K, x2 = 0.6975	752.48	1.364
308.15 K, x2 = 0.7959	747.14	1.262
308.15 K, x2 = 0.8984	742.15	1.172
313.15 K, x2 = 0.0998	796.48	2.94
313.15 K, x2 = 0.2005	786.16	2.412
313.15 K, x2 = 0.302	776.66	2.009
313.15 K, x2 = 0.3991	768.72	1.736
313.15 K, x2 = 0.4989	761.28	1.528
313.15 K, x2 = 0.5994	754.63	1.365
313.15 K, x2 = 0.6975	748.76	1.247
313.15 K, x2 = 0.7959	743.42	1.158
313.15 K, x2 = 0.8984	738.43	1.08
318.15 K, x2 = 0.0998	792.81	2.573
318.15 K, x2 = 0.2005	782.46	2.134
318.15 K, x2 = 0.302	772.94	1.795
318.15 K, x2 = 0.3991	764.98	1.566
318.15 K, x2 = 0.4989	757.54	1.388
318.15 K, x2 = 0.5994	750.88	1.247
318.15 K, x2 = 0.6975	745.01	1.145
318.15 K, x2 = 0.7959	739.67	1.066
318.15 K, x2 = 0.8984	734.71	0.999
323.15 K, x2 = 0.0998	789.12	2.266
323.15 K, x2 = 0.2005	778.74	1.896
323.15 K, x2 = 0.302	769.19	1.612
323.15 K, x2 = 0.3991	761.22	1.417
323.15 K, x2 = 0.4989	753.77	1.265
323.15 K, x2 = 0.5994	747.11	1.143
323.15 K, x2 = 0.6975	741.23	1.054
323.15 K, x2 = 0.7959	735.9	0.986
323.15 K, x2 = 0.8984	730.96	0.928
328.15 K, x2 = 0.0998	785.39	2.006
328.15 K, x2 = 0.2005	774.97	1.694
328.15 K, x2 = 0.302	765.4	1.454
328.15 K, x2 = 0.3991	757.43	1.288
328.15 K, x2 = 0.4989	749.97	1.158
328.15 K, x2 = 0.5994	743.31	1.051
328.15 K, x2 = 0.6975	737.44	0.974
328.15 K, x2 = 0.7959	732.12	0.915
328.15 K, x2 = 0.8984	727.21	0.864
333.15 K, x2 = 0.0998	781.62	1.785
333.15 K, x2 = 0.2005	771.18	1.522
333.15 K, x2 = 0.302	761.59	1.317
333.15 K, x2 = 0.3991	753.6	1.175
333.15 K, x2 = 0.4989	746.14	1.063
333.15 K, x2 = 0.5994	739.49	0.97
333.15 K, x2 = 0.6975	733.61	0.902
333.15 K, x2 = 0.7959	728.31	0.851
333.15 K, x2 = 0.8984	723.43	0.807

OCC1CCCCC1 [cyclohexylmethanol] + CCCCCCCCCCCC
Conditions	mass density [kg/m3]	viscosity [mPa·s]
293.15 K, x2 = 0.1014	898.17	18.36
293.15 K, x2 = 0.1991	872.04	9.786
293.15 K, x2 = 0.299	849.06	6.177
293.15 K, x2 = 0.3997	828.81	4.307
293.15 K, x2 = 0.4992	811.3	3.223
293.15 K, x2 = 0.6005	795.57	2.542
293.15 K, x2 = 0.7008	781.83	2.087
293.15 K, x2 = 0.7986	769.9	1.809
293.15 K, x2 = 0.8996	758.73	1.594
298.15 K, x2 = 0.1014	894.59	14.59
298.15 K, x2 = 0.1991	868.46	7.99
298.15 K, x2 = 0.299	845.44	5.179
298.15 K, x2 = 0.3997	825.18	3.688
298.15 K, x2 = 0.4992	807.71	2.813
298.15 K, x2 = 0.6005	791.92	2.251
298.15 K, x2 = 0.7008	778.16	1.873
298.15 K, x2 = 0.7986	766.22	1.633
298.15 K, x2 = 0.8996	755.05	1.447
303.15 K, x2 = 0.1014	890.99	11.73
303.15 K, x2 = 0.1991	864.86	6.621
303.15 K, x2 = 0.299	841.79	4.403
303.15 K, x2 = 0.3997	821.5	3.197
303.15 K, x2 = 0.4992	804.02	2.479
303.15 K, x2 = 0.6005	788.23	2.01
303.15 K, x2 = 0.7008	774.47	1.69
303.15 K, x2 = 0.7986	762.53	1.481
303.15 K, x2 = 0.8996	751.37	1.321
308.15 K, x2 = 0.1014	887.35	9.573
308.15 K, x2 = 0.1991	861.23	5.545
308.15 K, x2 = 0.299	838.08	3.779
308.15 K, x2 = 0.3997	817.79	2.795
308.15 K, x2 = 0.4992	800.32	2.201
308.15 K, x2 = 0.6005	784.52	1.806
308.15 K, x2 = 0.7008	770.76	1.532
308.15 K, x2 = 0.7986	758.82	1.351
308.15 K, x2 = 0.8996	747.67	1.211
313.15 K, x2 = 0.1014	883.69	7.9
313.15 K, x2 = 0.1991	857.57	4.691
313.15 K, x2 = 0.299	834.37	3.271
313.15 K, x2 = 0.3997	814.07	2.461
313.15 K, x2 = 0.4992	796.59	1.966
313.15 K, x2 = 0.6005	780.79	1.631
313.15 K, x2 = 0.7008	767.03	1.395
313.15 K, x2 = 0.7986	755.09	1.237
313.15 K, x2 = 0.8996	743.96	1.115
318.15 K, x2 = 0.1014	879.99	6.588
318.15 K, x2 = 0.1991	853.91	4.005
318.15 K, x2 = 0.299	830.77	2.854
318.15 K, x2 = 0.3997	810.31	2.183
318.15 K, x2 = 0.4992	792.83	1.767
318.15 K, x2 = 0.6005	777.04	1.48
318.15 K, x2 = 0.7008	763.28	1.276
318.15 K, x2 = 0.7986	751.35	1.138
318.15 K, x2 = 0.8996	740.24	1.031
323.15 K, x2 = 0.1014	876.25	5.525
323.15 K, x2 = 0.1991	850.16	3.447
323.15 K, x2 = 0.299	827.01	2.507
323.15 K, x2 = 0.3997	806.53	1.947
323.15 K, x2 = 0.4992	789.05	1.594
323.15 K, x2 = 0.6005	773.26	1.348
323.15 K, x2 = 0.7008	759.51	1.171
323.15 K, x2 = 0.7986	747.58	1.05
323.15 K, x2 = 0.8996	736.5	0.957
328.15 K, x2 = 0.1014	872.47	4.696
328.15 K, x2 = 0.1991	846.36	2.99
328.15 K, x2 = 0.299	823.2	2.216
328.15 K, x2 = 0.3997	802.71	1.746
328.15 K, x2 = 0.4992	785.24	1.446
328.15 K, x2 = 0.6005	769.45	1.233
328.15 K, x2 = 0.7008	755.71	1.079
328.15 K, x2 = 0.7986	743.79	0.973
328.15 K, x2 = 0.8996	732.74	0.891
333.15 K, x2 = 0.1014	868.64	3.987
333.15 K, x2 = 0.1991	842.52	2.614
333.15 K, x2 = 0.299	819.35	1.972
333.15 K, x2 = 0.3997	798.87	1.574
333.15 K, x2 = 0.4992	781.41	1.318
333.15 K, x2 = 0.6005	765.62	1.132
333.15 K, x2 = 0.7008	751.89	0.997
333.15 K, x2 = 0.7986	739.98	0.904
333.15 K, x2 = 0.8996	728.97	0.832
